The target in test [1] is T1, Tyrosine-protein kinase HCK (Homo sapiens, UniProt P08631). The test is described as follows: Inhibition of HCK (75 to 526 residues) (unknown origin) expressed in Sf9 insect cells after 120 mins.
Test [2] addresses T1, Tyrosine-protein kinase HCK. Put plainly: biochemical.

Here are results for six compounds from ChEMBL document CHEMBL4052720, “Activity cliff for 7-substituted pyrrolo-pyrimidine inhibitors of HCK explained in terms of predicted basicity of the amine nitrogen” (Bioorg Med Chem, 2017).

T1 sequence (P08631 whole entry, the tested form may be a part): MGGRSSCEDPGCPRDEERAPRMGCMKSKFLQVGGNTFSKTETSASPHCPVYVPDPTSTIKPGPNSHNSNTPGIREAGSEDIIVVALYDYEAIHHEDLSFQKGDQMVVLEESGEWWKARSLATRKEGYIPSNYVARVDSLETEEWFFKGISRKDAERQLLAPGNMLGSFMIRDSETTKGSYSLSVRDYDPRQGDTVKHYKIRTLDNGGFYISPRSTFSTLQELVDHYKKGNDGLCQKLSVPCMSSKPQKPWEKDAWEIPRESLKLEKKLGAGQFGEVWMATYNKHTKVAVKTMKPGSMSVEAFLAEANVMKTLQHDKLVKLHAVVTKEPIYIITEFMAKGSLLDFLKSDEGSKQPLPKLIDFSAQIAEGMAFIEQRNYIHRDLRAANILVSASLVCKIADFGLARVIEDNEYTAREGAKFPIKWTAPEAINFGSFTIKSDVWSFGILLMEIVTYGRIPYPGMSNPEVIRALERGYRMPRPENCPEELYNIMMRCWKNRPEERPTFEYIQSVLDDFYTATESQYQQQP

In the case of `CC(C)C[C@H](N[C@H]1CC[C@H](n2cc(-c3ccc(Oc4ccccc4)cc3)c3c(N)ncnc32)CC1)C(N)=O`, the IC50 in test [1] (read-out: IC50) turned out to be 210 nM.
Same read-out and setting: the value for `CCOC(=O)[C@H](CC(C)C)N[C@H]1CC[C@H](n2cc(-c3ccc(Oc4ccccc4)cc3)c3c(N)ncnc32)CC1` was 1320 nM; that for `CNC(=O)[C@H](CC(C)C)N[C@H]1CC[C@H](n2cc(-c3ccc(Oc4ccccc4)cc3)c3c(N)ncnc32)CC1` was 111 nM.
As to `CC(C)C[C@H](N[C@H]1CC[C@H](n2cc(-c3ccc(Oc4ccccc4)cc3)c3c(N)ncnc32)CC1)C(=O)O`, the IC50 in test [1] (read-out: IC50) was 11 nM.
Still for that read-out and setting: next, `CC(C)C[C@H](N[C@H]1CC[C@H](n2cc(-c3ccc(Oc4ccccc4)cc3)c3c(N)ncnc32)CC1)C(=O)N(C)C`: 686 nM.
Take `CN1CCN([C@H]2CC[C@H](n3cc(-c4ccc(Oc5ccccc5)cc4)c4c(N)ncnc43)CC2)CC1`: the IC50 was 0.43 nM in test [2] and 0.427 nM in test [1] (read-out: pIC50 (converted)).
